{"source": "the supplement of paper PMC10307832", "assay_in_all_cases": "relative viability (nuclei count vs DMSO), 5 days (fraction); higher = more cells survive", "key": {"BEN": {"tested_on": "BEN", "in_short": "(§1)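 Lung cancer cell lines, seeded in 1536-well plates, were treated the following day by pin tool with a single drug or with five library-drug doses (not always all listed) in √10 steps on top of a fixed anchor-drug dose. Cells were fixed and nuclei stained in one step after 5 days, and nuclei were counted. Relative viability is the nuclei count for treated wells divided by that for vehicle wells, reported as medians of duplicate plates.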"}, "EMC-BAC-2": {"tested_on": "EMC-BAC-2", "in_short": "as §1"}, "H3255": {"tested_on": "H3255", "in_short": "as §1"}, "HOP-62": {"tested_on": "HOP-62", "in_short": "as §1"}, "LCLC-97TM1": {"tested_on": "LCLC-97TM1", "in_short": "as §1"}, "LXF-289": {"tested_on": "LXF-289", "in_short": "as §1"}, "NCI-H1650": {"tested_on": "NCI-H1650", "in_short": "as §1"}, "NCI-H1915": {"tested_on": "NCI-H1915", "in_short": "as §1"}, "NCI-H1993": {"tested_on": "NCI-H1993", "in_short": "as §1"}, "NCI-H2009": {"tested_on": "NCI-H2009", "in_short": "as §1"}, "NCI-H2023": {"tested_on": "NCI-H2023", "in_short": "as §1"}, "NCI-H2085": {"tested_on": "NCI-H2085", "in_short": "as §1"}, "NCI-H2126": {"tested_on": "NCI-H2126", "in_short": "as §1"}, "NCI-H2342": {"tested_on": "NCI-H2342", "in_short": "as §1"}, "NCI-H2347": {"tested_on": "NCI-H2347", "in_short": "as §1"}, "NCI-H322M": {"tested_on": "NCI-H322M", "in_short": "as §1"}, "NCI-H358": {"tested_on": "NCI-H358", "in_short": "as §1"}, "NCI-H647": {"tested_on": "NCI-H647", "in_short": "as §1"}, "NCI-H661": {"tested_on": "NCI-H661", "in_short": "as §1"}, "NCI-H727": {"tested_on": "NCI-H727", "in_short": "as §1"}, "PC-14": {"tested_on": "PC-14", "in_short": "as §1"}, "SK-LU-1": {"tested_on": "SK-LU-1", "in_short": "as §1"}, "SW 1573": {"tested_on": "SW 1573", "in_short": "as §1"}}, "data": [{"smiles": "CC(C)Oc1cc(Nc2nc(N[C@@H](C)c3ccc(F)cn3)ncc2Cl)n[nH]1", "note": "[AZ23] + O=C(c1cc(Cc2n[nH]c(=O)c3ccccc23)ccc1F)N1CCN(C(=O)C2CC2)CC1 [Olaparib] (partner 8 µM)", "values": [{"measurement": "relative viability", "setting": "BEN; first compound 0.01 µM", "value": 1.03}, {"measurement": "relative viability", "setting": "BEN; first compound 0.03162 µM", "value": 1.24}, {"measurement": "relative viability", "setting": "BEN; first compound 0.3162 µM", "value": 1.16}, {"measurement": "relative viability", "setting": "EMC-BAC-2; first compound 0.01 µM", "value": 0.545}, {"measurement": "relative viability", "setting": "EMC-BAC-2; first compound 0.03162 µM", "value": 0.514}, {"measurement": "relative viability", "setting": "EMC-BAC-2; first compound 0.3162 µM", "value": 0.503}, {"measurement": "relative viability", "setting": "H3255; first compound 0.01 µM", "value": 0.524}, {"measurement": "relative viability", "setting": "H3255; first compound 0.03162 µM", "value": 0.581}, {"measurement": "relative viability", "setting": "H3255; first compound 0.3162 µM", "value": 0.542}, {"measurement": "relative viability", "setting": "HOP-62; first compound 0.03162 µM", "value": 0.477}, {"measurement": "relative viability", "setting": "HOP-62; first compound 0.3162 µM", "value": 0.379}, {"measurement": "relative viability", "setting": "LCLC-97TM1; first compound 0.01 µM", "value": 0.299}, {"measurement": "relative viability", "setting": "LCLC-97TM1; first compound 0.03162 µM", "value": 0.526}, {"measurement": "relative viability", "setting": "LCLC-97TM1; first compound 0.3162 µM", "value": 0.416}, {"measurement": "relative viability", "setting": "LXF-289; first compound 0.01 µM", "value": 1.39}, {"measurement": "relative viability", "setting": "LXF-289; first compound 0.03162 µM", "value": 1.14}, {"measurement": "relative viability", "setting": "LXF-289; first compound 0.3162 µM", "value": 1.1}, {"measurement": "relative viability", "setting": "NCI-H1650; first compound 0.01 µM", "value": 0.685}, {"measurement": "relative viability", "setting": "NCI-H1650; first compound 0.03162 µM", "value": 0.97}, {"measurement": "relative viability", "setting": "NCI-H1650; first compound 0.3162 µM", "value": 0.876}, {"measurement": "relative viability", "setting": "NCI-H1915; first compound 0.01 µM", "value": 0.259}, {"measurement": "relative viability", "setting": "NCI-H1915; first compound 0.03162 µM", "value": 0.253}, {"measurement": "relative viability", "setting": "NCI-H1915; first compound 0.3162 µM", "value": 0.275}, {"measurement": "relative viability", "setting": "NCI-H1993; first compound 0.01 µM", "value": 1.08}, {"measurement": "relative viability", "setting": "NCI-H1993; first compound 0.03162 µM", "value": 1.07}, {"measurement": "relative viability", "setting": "NCI-H1993; first compound 0.3162 µM", "value": 1.01}, {"measurement": "relative viability", "setting": "NCI-H2009; first compound 0.01 µM", "value": 0.814}, {"measurement": "relative viability", "setting": "NCI-H2009; first compound 0.03162 µM", "value": 0.769}, {"measurement": "relative viability", "setting": "NCI-H2009; first compound 0.3162 µM", "value": 0.79}, {"measurement": "relative viability", "setting": "NCI-H2023; first compound 0.03162 µM", "value": 0.572}, {"measurement": "relative viability", "setting": "NCI-H2023; first compound 0.3162 µM", "value": 0.573}, {"measurement": "relative viability", "setting": "NCI-H2085; first compound 0.01 µM", "value": 0.784}, {"measurement": "relative viability", "setting": "NCI-H2085; first compound 0.03162 µM", "value": 0.884}, {"measurement": "relative viability", "setting": "NCI-H2085; first compound 0.3162 µM", "value": 0.791}, {"measurement": "relative viability", "setting": "NCI-H2126; first compound 0.01 µM", "value": 0.996}, {"measurement": "relative viability", "setting": "NCI-H2126; first compound 0.03162 µM", "value": 0.924}, {"measurement": "relative viability", "setting": "NCI-H2126; first compound 0.3162 µM", "value": 0.888}, {"measurement": "relative viability", "setting": "NCI-H2342; first compound 0.01 µM", "value": 0.413}, {"measurement": "relative viability", "setting": "NCI-H2342; first compound 0.03162 µM", "value": 0.473}, {"measurement": "relative viability", "setting": "NCI-H2342; first compound 0.3162 µM", "value": 0.399}, {"measurement": "relative viability", "setting": "NCI-H2347; first compound 0.01 µM", "value": 0.579}, {"measurement": "relative viability", "setting": "NCI-H2347; first compound 0.03162 µM", "value": 0.622}, {"measurement": "relative viability", "setting": "NCI-H2347; first compound 0.3162 µM", "value": 0.604}, {"measurement": "relative viability", "setting": "NCI-H322M; first compound 0.01 µM", "value": 0.564}, {"measurement": "relative viability", "setting": "NCI-H322M; first compound 0.03162 µM", "value": 0.749}, {"measurement": "relative viability", "setting": "NCI-H322M; first compound 0.3162 µM", "value": 0.741}, {"measurement": "relative viability", "setting": "NCI-H358; first compound 0.01 µM", "value": 0.72}, {"measurement": "relative viability", "setting": "NCI-H358; first compound 0.03162 µM", "value": 0.667}, {"measurement": "relative viability", "setting": "NCI-H358; first compound 0.3162 µM", "value": 0.664}, {"measurement": "relative viability", "setting": "NCI-H647; first compound 0.01 µM", "value": 0.68}, {"measurement": "relative viability", "setting": "NCI-H647; first compound 0.03162 µM", "value": 0.687}, {"measurement": "relative viability", "setting": "NCI-H647; first compound 0.3162 µM", "value": 0.812}, {"measurement": "relative viability", "setting": "NCI-H661; first compound 0.01 µM", "value": 0.823}, {"measurement": "relative viability", "setting": "NCI-H661; first compound 0.03162 µM", "value": 0.792}, {"measurement": "relative viability", "setting": "NCI-H661; first compound 0.3162 µM", "value": 0.738}, {"measurement": "relative viability", "setting": "NCI-H727; first compound 0.01 µM", "value": 0.751}, {"measurement": "relative viability", "setting": "NCI-H727; first compound 0.03162 µM", "value": 0.678}, {"measurement": "relative viability", "setting": "NCI-H727; first compound 0.3162 µM", "value": 0.689}, {"measurement": "relative viability", "setting": "PC-14; first compound 0.01 µM", "value": 0.189}, {"measurement": "relative viability", "setting": "PC-14; first compound 0.03162 µM", "value": 0.36}, {"measurement": "relative viability", "setting": "PC-14; first compound 0.3162 µM", "value": 0.296}, {"measurement": "relative viability", "setting": "SK-LU-1; first compound 0.03162 µM", "value": 0.564}, {"measurement": "relative viability", "setting": "SK-LU-1; first compound 0.3162 µM", "value": 0.47}, {"measurement": "relative viability", "setting": "SW 1573; first compound 0.01 µM", "value": 0.649}, {"measurement": "relative viability", "setting": "SW 1573; first compound 0.03162 µM", "value": 0.613}, {"measurement": "relative viability", "setting": "SW 1573; first compound 0.3162 µM", "value": 0.508}]}]}
